Drawing on PubChem BioAssay AID179 (DTP/NCI, 2004), this text covers EC50, IC50 and outcome for 73 compounds.

The source made the active and inactive calls.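 How the source made its calls: active means compounds giving half or more protection of infected cells from virus-caused growth loss, again on retest; inactive means the rest.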 Some results are limits rather than exact numbers.

In the assay the test system is CEM cells HIV-1 protection, formazan growth assay. Nature of the assay: NCI AIDS Antiviral Assay. The conditions noted are these: for IC50: measured here: growth of uninfected CEM cells. The procedure, abridged:
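Screen of anti-HIV-1 activity in human CEM cells using a formazan-based growth measurement at five drug concentrations. Hits with 50% or greater protection were repeated, and confirmation required reproducible complete protection.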

`COc1ccc2nc3ccccc3c(NCCN(C)CCCl)c2c1`: the EC50 is greater than 20 µM and the IC50 is 1.32 µM.

Consider `N#CN/C(N)=N/CO`, for which the EC50 is greater than 776 µM and the IC50 is 46.8 µM.

Turning to `CP1(=S)CCC2=C1c1ccc(O)cc1CC2` (centres undefined), the outcome was inactive.

Regarding `C=C1c2c(Cl)ccc(O)c2C(O)=C2C(=O)C3(O)C(O)=C(C(N)=O)C(=O)C(N(C)C)C3C(O)C12` (centres undefined), the EC50 is greater than 200 µM and the IC50 was found to be 11 µM.

Consider `COc1ccc([C@@H]2C[C@@H]3C(=O)OC(=O)[C@@H]3c3c2c2ccccc2n3C)cc1`, for which the EC50 was greater than 52.5 µM and the IC50 is greater than 52.5 µM.

Consider `C/C(=N\NS(=O)(=O)c1c(C)cc(C)cc1C)c1ccc[n+]([O-])n1`, for which the outcome was inactive.

Take `O=c1c2ccccc2n2nnc3ccc(NCCCNCCNCCCNc4ccc5nnn6c7ccccc7c(=O)c4c56)c1c32`: the EC50 was greater than 0.0501 µM and the IC50 was found to be 0.0347 µM.

With `O=c1[nH]c2ccc(C(F)(F)F)cc2nc1-c1ccccc1`, the EC50 was greater than 200 µM and the IC50 was greater than 200 µM.

Turning to `CCOP(=O)(OCC)C1CC(O)C(=O)N1` (centres undefined), the EC50 was greater than 200 µM and the IC50 was greater than 200 µM.

As to `CC1=Nc2c([nH]c(=S)[nH]c2=O)NC(c2c(Cl)cccc2Cl)C1` (centres undefined), the EC50 was greater than 7.76 µM and the IC50 was greater than 7.76 µM.

With `CC1=C2CC(C)(C)CC(=O)C2(C)CCC1=O` (centres undefined), the result was inactive.

As for `O=C1C2(CCCC13OC3c1ccccc1)OC2c1ccccc1` (centres undefined), the EC50 is greater than 200 µM and the IC50 came to 115 µM.

Consider `CCN1C(=O)/C(=C2\SC(c3ccccc3)(c3ccccc3)c3ccccc32)SC1=S`, for which the EC50 was greater than 200 µM and the half-maximal inhibitory concentration (IC50) is greater than 200 µM.

With `O=C1CCc2nc3ccccc3c(=O)n21`, the EC50 is greater than 1260 µM and the IC50 was greater than 1260 µM.

On to `Clc1ccc(CN2COc3c(cc(Cl)c4cccnc34)C2)c(Cl)c1`, for which the EC50 is greater than 100 µM and the IC50 was determined as 1.74 µM.

For the compound `C[Si](C)(C)C#C/C(CO)=C(/C#C[Si](C)(C)C)CO`, the EC50 is greater than 33.9 µM and the IC50 is greater than 33.9 µM.

Turning to `C=C(/C=N/N(C)C)CC1c2c(O)ccc3cccc(c23)N1S(=O)(=O)c1ccc(C)cc1` (centres undefined), the EC50 is greater than 10.7 µM and the IC50 is greater than 10.7 µM.

In the case of `CNCCS(=O)(=O)O`, the EC50 was greater than 200 µM and the half-maximal inhibitory concentration (IC50) is greater than 200 µM.

As for `CCOC(=O)Cc1csc(Nc2ccc(OCC)cc2)n1`, the EC50 is greater than 214 µM and the IC50 was 145 µM.

Regarding `NC(N)=NS(=O)(=O)c1ccc(NC(=O)c2cccc3c(NNc4ccc(S(N)(=O)=O)cc4)c4ccccc4nc23)cc1`, the EC50 was greater than 200 µM and the IC50 was 28.2 µM.

In the case of `O=C(O)c1cccc2cccc(-c3c4ccc(=O)cc-4oc4cc(O)ccc34)c12`, the EC50 worked out at 14.1 µM and the IC50 is 123 µM.

`CC(=O)NNc1nc(C)c(C(/C=C/c2ccc(/C=C/C(=N\NC(=O)c3ccncc3)c3sc(NNC(C)=O)nc3C)cc2)=N/NC(=O)c2ccncc2)s1`: the EC50 is greater than 13.2 µM and the IC50 is greater than 13.2 µM.

For the compound `CNC(=O)CNC(=O)CCC(=O)OC`, the EC50 was greater than 200 µM and the IC50 was greater than 200 µM.

As to `CCOCC=NCC(=O)OCC`, the EC50 is greater than 1450 µM and the IC50 was greater than 1450 µM.

For `COc1ccccc1/C=C(\NC(=O)c1ccccc1)c1nc2ccccc2[nH]1`, the EC50 was greater than 97.7 µM and the IC50 was 47.9 µM.

In the case of `COc1cc(/C=C2\NC(=O)N(/C=C3\C(=O)Oc4ccccc4C3=O)C2=O)ccc1O`, the EC50 is greater than 200 µM and the IC50 was greater than 200 µM.

On to `CCN(CC)CC(C(=O)Nc1c(C)cccc1C)/C(C)=N\NC(=O)c1ccncc1` (centres undefined), for which the EC50 is greater than 33.1 µM and the IC50 was greater than 33.1 µM.

Turning to `c1csc(-c2nc3sc(-c4cccs4)nc3s2)c1`, the outcome was inactive.

For `COc1ccc(-c2oc3cc(O)cc(O)c3c(=O)c2OC)cc1`, the outcome was inactive.

For the compound `C=C(C(=O)O)C1CC[C@@]2(C)CC(O)CC(=C)C2C1` (some centres undefined), the EC50 was greater than 200 µM and the IC50 was greater than 200 µM.

As for `Cc1ccccc1NC(=O)C(=O)C(c1cnc2ccc([N+](=O)[O-])cc2n1)[N+](=O)[O-]` (centres undefined), the EC50 is greater than 240 µM and the IC50 amounted to 126 µM.

Consider `CN1C(=O)C2CCC(=O)N2c2cccnc21` (centres undefined), for which the EC50 was greater than 200 µM and the IC50 was greater than 200 µM.

Turning to `C=COC(=O)N1C2CCCC(Cl)(C(C)=O)C1CC2` (centres undefined), the EC50 was greater than 200 µM and the IC50 is 55 µM.

As to `O=C(C[n+]1ccccc1)c1ccc(O)c(O)c1`, the EC50 was 0.0631 µM and the IC50 is greater than 200 µM.

On to `Cc1ccc(C2(O)CC(c3ccc([N+](=O)[O-])o3)=NN2C(=O)COc2ccc(Cl)cc2)cc1` (centres undefined), for which the EC50 is greater than 11.5 µM and the IC50 was greater than 11.5 µM.

In the case of `CCCc1cc(=O)oc2c3c(cc(OC(C)C)c12)O[C@@H](C)[C@H](C)[C@H]3O`, the EC50 was greater than 200 µM and the IC50 came to 11.7 µM.

For `CC(C)(C)OC(=O)N[C@@H](Cc1ccccc1)CN1CCCC1C(=O)OCc1ccccc1` (some centres undefined), the EC50 is greater than 30.9 µM and the IC50 is greater than 30.9 µM.

On to `CCOC12OC3=C(CC1CC1=C(CCC1=O)O2)C(=O)CC3` (centres undefined), for which the result was inactive.

`CCCCCCCCCC1C(C)c2c([nH]c3ccccc23)C2C(=O)N(c3ccccc3)C(=O)C21` (centres undefined): the outcome was inactive.

`O=c1c2ccccc2c2nccc3c4ccccc4n1c32`: the EC50 is greater than 37.2 µM and the IC50 was greater than 37.2 µM.

Regarding `O=C1Cc2cn[nH]c2-c2ccccc2N1`, the outcome was inactive.

For the compound `Nc1ccc(N=Nc2ccc(N=Nc3c(S(=O)(=O)O)cc4cc(S(=O)(=O)O)c(N=Nc5ccc(N=Nc6ccc(N)cc6N)cc5)c(O)c4c3N)cc2)c(N)c1`, the EC50 was 11.5 µM and the IC50 was found to be 50.1 µM.

For the compound `C[CH2][Pb]([CH2]C)([CH2]C)[O]C(=O)COc1ccc(Cl)cc1Cl`, the EC50 was greater than 2 µM and the IC50 was 0.575 µM.

Consider `CC(=O)NCCSSCCCCSSCCNC(C)=O`, for which the EC50 is greater than 200 µM and the IC50 was determined as 95.5 µM.

Turning to `c1ccc(-c2cc(-c3cc(-c4ccccc4)n(-c4ccccc4)n3)nn2-c2ccccc2)cc1`, the EC50 was greater than 100 µM and the half-maximal inhibitory concentration (IC50) was greater than 100 µM.

Take `COc1cc2c(c(OC)c1O)-c1ccc(OC)c(=O)cc1[C@@H](NC(=O)C(F)(F)F)CC2`: the EC50 is greater than 2 µM and the IC50 came out at 0.0363 µM.

Consider `CCOC(=O)/C(F)=C/c1ccc(C#N)cc1`, for which the EC50 was greater than 33.1 µM and the IC50 is greater than 33.1 µM.

For `CCOC(=O)C1=C(C)N(NC(=O)c2ccccc2)C2(O)CCCC12C(=O)OCC` (centres undefined), the EC50 was greater than 447 µM and the IC50 amounted to 245 µM.

Regarding `CCCCCC1CC=CC(NC(=O)OCc2ccccc2)C1/C=C/CCCC1OCCO1` (centres undefined), the outcome was inactive.

For `c1cc2c(cc1C1OCC3C(c4ccc5c(c4)OCO5)OCC13)OCO2` (centres undefined), the EC50 is greater than 100 µM and the IC50 is 58.9 µM.

`O=c1c(-c2ccc(O)cc2)coc2c(C3OC(CO)C(O)C(O)C3O)c(O)ccc12` (centres undefined): the EC50 is greater than 200 µM and the IC50 was greater than 200 µM.

Take `COc1cccc(C2c3cc4c(cc3OC(N3CCCCC3)C2C)OCO4)c1OC` (centres undefined): the EC50 was greater than 200 µM and the IC50 is 1.7 µM.

As to `Brc1ccc(-c2ccc(-c3ccc(-c4ccc(Br)s4)s3)s2)s1`, the EC50 is greater than 200 µM and the IC50 is greater than 200 µM.

For the compound `CC1(C)OC[C@@H](O)[C@H](C#N)CO1`, the EC50 was greater than 200 µM and the half-maximal inhibitory concentration (IC50) was greater than 200 µM.

Turning to `CC1NOC(=O)C1N=Nc1ccccc1Br` (centres undefined), the EC50 was greater than 66.1 µM and the IC50 came out at 63.1 µM.

For `C=C(CCC(Cl)C(O)CO)[Si](C)(C)C` (centres undefined), the EC50 is greater than 110 µM and the IC50 is greater than 110 µM.

As to `CCOC(=O)c1ccc(N2N=C3C(=CC(=O)c4ccccc43)SCC2=O)cc1`, the EC50 is greater than 47.9 µM and the IC50 is 19.5 µM.

`O=C1CN(N2CCOCC2)CC(=O)N2CCCCN12`: the EC50 is 19.1 µM and the IC50 was greater than 200 µM.

Regarding `c1ccc(-c2cnc3cccnc3n2)cc1`, the EC50 is greater than 200 µM and the IC50 amounted to 174 µM.

As to `CCOC(=O)C(CC(C(=O)OCC)C(=O)OCC)C(=O)OCC`, the outcome was inactive.

With `COC1(CC[C@@H](C)COC2OC(CO)C(O)C(O)C2O)O[C@H]2C[C@H]3[C@@H]4CC=C5C[C@@H](OC6OC(CO)C(OC7OC(C)C(O)C(O)C7O)C(O)C6OC6OC(C)C(O)C(O)C6O)CC[C@]5(C)[C@H]4CC[C@]3(C)[C@H]2[C@@H]1C` (some centres undefined), the EC50 was greater than 200 µM and the 50% inhibitory concentration (IC50) worked out at 2.57 µM.

For `O=C(Nc1cccc(C(=O)NCCCO)c1)/C(=C/c1ccccc1)NC(=O)c1ccccc1`, the EC50 is greater than 200 µM and the IC50 is greater than 200 µM.

With `Cc1cccc(C2SCc3nc4ccccc4n32)c1` (centres undefined), the result was inactive.

With `C[C@]12CC[C@H](O)CC1=CC[C@@H]1[C@@H]2CC[C@]2(C)/C(=N/OCCN3CCCC3)CC[C@@H]12`, the EC50 was greater than 200 µM and the IC50 was 9.33 µM.

On to `C/C(=N\NC(=S)Nc1ccccc1)[C@H]1C2CCC(C2)C1C/C=C\CCCC(=O)O` (some centres undefined), for which the EC50 is greater than 229 µM and the IC50 is 107 µM.

`CCOC(=O)c1c2c(nc3c1CCCC3)CCCC2`: the EC50 is greater than 200 µM and the IC50 worked out at 64.6 µM.

Turning to `COP1(=S)OCC2CCC[C@@H]2O1` (some centres undefined), the outcome was inactive.

As for `CC[N+]12CC[N+](CC)(CC1)C2`, the EC50 was greater than 708 µM and the IC50 was greater than 708 µM.

On to `O=C(O)c1ccsc1Cc1cccs1`, for which the EC50 is greater than 200 µM and the IC50 was greater than 200 µM.

Take `C/C=C1\C=C(OC)CN(CCc2c[nH]c3ccccc23)C1`: the EC50 is greater than 158 µM and the IC50 turned out to be 50.1 µM.

As to `N#CC1=C(C#N)SCCCS1`, the EC50 was greater than 14.8 µM and the IC50 is greater than 14.8 µM.

As for `C[C@H]1C[C@H]2[C@@H]3CCC4=CC(=O)C=C[C@]4(C)C3=CC[C@]2(C)[C@@]1(O)C(=O)CO`, the EC50 is 102 µM and the IC50 is 107 µM.

Take `CCOC(=O)c1cc2c(ccc3cc(C(=O)OCC)[nH]c32)[nH]1`: the EC50 was greater than 200 µM and the half-maximal inhibitory concentration (IC50) was greater than 200 µM.
